Reference: PubChem BioAssay AID248 (DTP/NCI, 2004)
Several values for one entry are separate records, joined by “and”; a condition that tells them apart may be missing. Equal entries are not always repeated. Inconclusive results and toxic doses are left out. No stated cut-off is given here; in the data, active means T/C of 150% or more; inactive means T/C below 125%.

Test system: L1210 leukemia ip in BDF1 mice, survival T/C
Experiment: NCI In Vivo Anticancer Drug Screen. Data for tumor model L1210 Leukemia (intraperitoneal) in B6D2F1 (BDF1) mice
Settings: endpoint: mean survival time, higher = longer survival
Outline: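 Survival endpoint. Drug-treated group vs vehicle group, expressed as T divided by C. Tumor passaged by transplantation.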

[1] = dose: 25.0 mg/kg/injection, schedule: Q04DX003 (ip), vehicle: saline
[2] = dose: 50.0 mg/kg/injection, schedule: Q04DX003 (ip), vehicle: saline
[3] = dose: 100.0 mg/kg/injection, schedule: Q04DX003 (ip), vehicle: saline
[4] = dose: 100.0 mg/kg/injection, schedule: Q01DX001 (ip), vehicle: Klucel (hydroxypropylcellulose) (HPC)
[5] = dose: 200.0 mg/kg/injection, schedule: Q01DX001 (ip), vehicle: Klucel (hydroxypropylcellulose) (HPC)
[6] = dose: 100.0 mg/kg/injection, schedule: Q01DX001 (ip), vehicle: carboxymethylcellulose (CMC)
[7] = dose: 200.0 mg/kg/injection, schedule: Q01DX001 (ip), vehicle: carboxymethylcellulose (CMC)
[8] = dose: 400.0 mg/kg/injection, schedule: Q01DX001 (ip), vehicle: carboxymethylcellulose (CMC)
[9] = dose: 50.0 mg/kg/injection, schedule: Q01DX009 (ip), vehicle: Klucel (hydroxypropylcellulose) (HPC)
[10] = dose: 100.0 mg/kg/injection, schedule: Q01DX009 (ip), vehicle: Klucel (hydroxypropylcellulose) (HPC)
[11] = dose: 100.0 mg/kg/injection, schedule: Q04DX003 (ip), vehicle: Klucel (hydroxypropylcellulose) (HPC)
[12] = dose: 200.0 mg/kg/injection, schedule: Q01DX009 (ip), vehicle: Klucel (hydroxypropylcellulose) (HPC)
[13] = dose: 200.0 mg/kg/injection, schedule: Q04DX003 (ip), vehicle: Klucel (hydroxypropylcellulose) (HPC)
[14] = dose: 100.0 mg/kg/injection, schedule: Q01DX009 (ip), vehicle: saline with Tween-80
[15] = dose: 200.0 mg/kg/injection, schedule: Q01DX009 (ip), vehicle: saline with Tween-80
[16] = dose: 400.0 mg/kg/injection, schedule: Q01DX009 (ip), vehicle: saline with Tween-80
[17] = dose: 100.0 mg/kg/injection, schedule: Q01DX001 (ip), vehicle: saline
[18] = dose: 400.0 mg/kg/injection, schedule: Q01DX009 (ip), vehicle: Klucel (hydroxypropylcellulose) (HPC)
[19] = dose: 400.0 mg/kg/injection, schedule: Q04DX003 (ip), vehicle: Klucel (hydroxypropylcellulose) (HPC)

Measured: T/C

C[N+](C)(C)CCOC(=O)c1cc(CBr)cc(CBr)c1
inactive: dose: 25.0 mg/kg/injection, schedule: Q01DX009 (ip), vehicle: saline 101 % of control | [1] 98 % of control | dose: 50.0 mg/kg/injection, schedule: Q01DX009 (ip), vehicle: saline 95 % of control | [2] 100 % of control | [3] 102 % of control

BrC1C2C3C=CC4C(C=C3)C4C12 (centres undefined)
inactive: dose: 50.0 mg/kg/injection, schedule: Q01DX001 (ip), vehicle: Klucel (hydroxypropylcellulose) (HPC) 100 % of control and 101 % of control | [4] 98 % of control and 111 % of control | [5] 108 % of control and 93 % of control

CC(C)CCCC(C)C1CCC2C3CCC4CN(N=O)CCC4C3CCC12C (centres undefined)
inactive: dose: 100.0 mg/kg/injection, schedule: Q01DX001 (sc), vehicle: steriod suspending solution 102 % of control | dose: 177.6 mg/kg/injection, schedule: Q01DX001 (sc), vehicle: steriod suspending solution 95 % of control | dose: 200.0 mg/kg/injection, schedule: Q01DX001 (sc), vehicle: steriod suspending solution 102 % of control | dose: 266.8 mg/kg/injection, schedule: Q01DX001 (sc), vehicle: steriod suspending solution 98 % of control | dose: 600.0 mg/kg/injection, schedule: Q01DX001 (sc), vehicle: steriod suspending solution 98 % of control

COc1ccccc1/C=C(/C)C(C)=O
inactive: dose: 75.0 mg/kg/injection, schedule: Q04DX003 (ip), vehicle: Klucel (hydroxypropylcellulose) (HPC) 102 % of control | [6] 103 % of control | dose: 150.0 mg/kg/injection, schedule: Q04DX003 (ip), vehicle: Klucel (hydroxypropylcellulose) (HPC) 97 % of control | [7] 108 % of control | dose: 300.0 mg/kg/injection, schedule: Q04DX003 (ip), vehicle: Klucel (hydroxypropylcellulose) (HPC) 94 % of control | [8] 97 % of control

CCN(CC)C(=S)[S][Sn]([S]C(=S)N(CC)CC)([c]1ccccc1)[c]1ccccc1
inactive: dose: 100.0 mg/kg/injection, schedule: Q01DX001 (ip), vehicle: other 97 % of control | dose: 200.0 mg/kg/injection, schedule: Q01DX001 (ip), vehicle: other 104 % of control | dose: 400.0 mg/kg/injection, schedule: Q01DX001 (ip), vehicle: other 112 % of control

C=CCOC(=O)C(F)(F)F
inactive: dose: 100.0 mg/kg/injection, schedule: Q04DX002 (ip), vehicle: saline 89 % of control | dose: 200.0 mg/kg/injection, schedule: Q04DX002 (ip), vehicle: saline 86 % of control

Nc1ccc2oc(=O)c(C(=O)O)cc2c1
inactive: [4] 112 % of control | [5] 89 % of control

NC(=O)C1(N2CCCC2)CCN(Cc2ccccc2)CC1
inactive: [9] 94 % of control | [10] 97 % of control | [11] 96 % of control | [12] 90 % of control | [13] 93 % of control

O=C1C=CC(=Nc2ccccc2Cl)O1
inactive: [14] 95 % of control | [15] 93 % of control | [16] 94 % of control

COc1ccc2nc3cc(Cl)ccc3c(Nc3ccc(O)c(CN(CCCl)CCCl)c3)c2c1
inactive: dose: 0.3 mg/kg/injection, schedule: Q01DX Z (ip), vehicle: saline 118 % of control | dose: 4.8 mg/kg/injection, schedule: Q01DX Z (ip), vehicle: saline 94 % of control | dose: 5.0 mg/kg/injection, schedule: Q01DX001 (ip), vehicle: saline 111 % of control | dose: 7.5 mg/kg/injection, schedule: Q04DX003 (ip), vehicle: saline 120 % of control | dose: 10.0 mg/kg/injection, schedule: Q01DX001 (ip), vehicle: saline 108 % of control | dose: 20.0 mg/kg/injection, schedule: Q01DX001 (ip), vehicle: saline 104 % of control | [17] 87 % of control

Cc1cc(N(C)C)nc(SCc2ccc(F)cc2)n1
inactive: dose: 200.0 mg/kg/injection, schedule: Q01DX Z (ip), vehicle: methylcellulose (MC) 96 % of control

COC(=O)C1C2CC3c4[nH]c5cc(OC)ccc5c4CCN3CC2CC(OC2CCCCO2)C1OC (centres undefined)
inactive: dose: 25.0 mg/kg/injection, schedule: Q04DX003 (ip), vehicle: Klucel (hydroxypropylcellulose) (HPC) 98 % of control | dose: 50.0 mg/kg/injection, schedule: Q04DX003 (ip), vehicle: Klucel (hydroxypropylcellulose) (HPC) 100 % of control | [11] 117 % of control

C[N+](C)(CCO)CC(O)c1ccc(C(O)C[N+](C)(C)CCO)cc1 (centres undefined)
inactive: dose: 0.05 mg/kg/injection, schedule: Q04DX003 (ip), vehicle: saline 102 % of control | dose: 0.1 mg/kg/injection, schedule: Q04DX003 (ip), vehicle: saline 104 % of control | dose: 0.2 mg/kg/injection, schedule: Q04DX003 (ip), vehicle: saline 93 % of control

Cc1cc(N(CCCl)CCCl)ccc1C=Nc1ccccc1C(=O)O
inactive: dose: 50.0 mg/kg/injection, schedule: Q01DX001 (ip), vehicle: saline 94 % of control | [9] 106 % of control | [4] 94 % of control | [17] 105 % of control | [10] 113 % of control | [5] 103 % of control | dose: 200.0 mg/kg/injection, schedule: Q01DX001 (ip), vehicle: saline 103 % of control | [12] 120 % of control | dose: 400.0 mg/kg/injection, schedule: Q01DX001 (ip), vehicle: Klucel (hydroxypropylcellulose) (HPC) 101 % of control | dose: 400.0 mg/kg/injection, schedule: Q01DX001 (ip), vehicle: saline 105 % of control | [18] 98 % of control

CC(=O)OCCOc1ccc(C(C)(C)C)cc1
inactive: [9] 100 % of control | [10] 86 % of control and 92 % of control | dose: 100.0 mg/kg/injection, schedule: Q04DX002 (ip), vehicle: Klucel (hydroxypropylcellulose) (HPC) 98 % of control | [12] 111 % of control | dose: 200.0 mg/kg/injection, schedule: Q04DX002 (ip), vehicle: Klucel (hydroxypropylcellulose) (HPC) 102 % of control | dose: 225.0 mg/kg/injection, schedule: Q01DX Z (ip), vehicle: carboxymethylcellulose (CMC) 95 % of control | dose: 400.0 mg/kg/injection, schedule: Q04DX002 (ip), vehicle: Klucel (hydroxypropylcellulose) (HPC) 115 % of control | dose: 450.0 mg/kg/injection, schedule: Q01DX Z (ip), vehicle: carboxymethylcellulose (CMC) 102 % of control

Cc1ccc(CCN)cc1C
inactive: [1] 103 % of control | [2] 101 % of control | [3] 101 % of control and 112 % of control

CCCCCCc1cc(N=Nc2ccc(S(=O)(=O)Nc3nccc(C)n3)cc2)c(O)cc1O
inactive: [6] 95 % of control | [7] 98 % of control | [8] 93 % of control

CCCCCCCCCCCC(=O)NC(=S)Nc1ccc([N+](=O)[O-])cc1OC
inactive: [11] 96 % of control | [13] 92 % of control | [19] 102 % of control

CCOC(=O)CNC(=O)CBr
inactive: dose: 10.0 mg/kg/injection, schedule: Q01DX Z (ip), vehicle: other 103 % of control | dose: 20.0 mg/kg/injection, schedule: Q01DX Z (ip), vehicle: other 91 % of control

O=[N+]([O-])c1ccc(S(=O)CCl)cc1 (centres undefined)
inactive: [11] 98 % of control | [13] 105 % of control

C=C(CCCCC)C(=O)/C=C/c1ccc(Cl)cc1
inactive: [9] 103 % of control | [10] 97 % of control | [11] 102 % of control | [12] 95 % of control | [13] 100 % of control | [19] 103 % of control

C=C(NC(=O)Cc1ccccc1)C(=O)OC
inactive: [14] 92 % of control | dose: 100.0 mg/kg/injection, schedule: Q04DX003 (ip), vehicle: saline with Tween-80 102 % of control | [15] 95 % of control | dose: 200.0 mg/kg/injection, schedule: Q04DX003 (ip), vehicle: saline with Tween-80 95 % of control | [16] 95 % of control | dose: 400.0 mg/kg/injection, schedule: Q04DX003 (ip), vehicle: saline with Tween-80 91 % of control

Cc1cccc(C)c1NC(=O)Nc1ccc(Cl)c(Cl)c1
inactive: [10] 97 % of control | [11] 95 % of control | [12] 94 % of control | [13] 86 % of control | [18] 94 % of control | [19] 91 % of control

CC1=CC2c3c([nH]c(=S)[nH]c3=O)OC(C)(C)C2CC1 (centres undefined)
inactive: [9] 99 % of control | [10] 96 % of control | [12] 96 % of control

Brc1ccc(C#Cc2ccccc2)cc1
inactive: [10] 100 % of control | [12] 100 % of control | [18] 108 % of control
